Experiments:
[1] = Acute intravenous toxicity in mice; conditions: mouse, in vivo, triethanolamine salt, aqueous solution, observed 7 days
Method: T.2. Acute intravenous toxicity in mice
Mice were each treated intravenously with an aqueous solution of the triethanolamine salt of one of the compounds of formula IV, and they were observed during the next 7 days. The LD50 figures obtained (doses lethal to 50% of mice tested) are shown below in Table III, expressed in mg/kg animal body weight.
The aqueous solutions used were prepared as follows:- A mixture of the test compound and water was treated gradually with triethanolamine until complete solution occurred. The solution was then diluted with water to a concentration of either 1% w/v or 2% w/v. Various volumes of these solutions were then administered to the mice.

[2] = test system: passive cutaneous anaphylactic reaction; assay: Passive cutaneous anaphylactic reaction test in rats (intravenous); format: in vivo; conditions: relative to reference compound RCA (= 1)
Description: A.1. Passive cutaneous anaphylactic reaction test in rats (intravenous)

[3] = Acute oral toxicity in mice; conditions: mouse, in vivo, observed 3 days
Description: T.1. Acute oral toxicity in mice
Mice were each treated orally with one of the compounds of formula IV, and they were observed during the next 3 days. The LD50 figures obtained (doses lethal to 50% of mice tested) are shown in Table II, expressed in mg/kg animal body weight.

[4] = test system: passive cutaneous anaphylactic reaction; assay: Passive cutaneous anaphylactic reaction test in rats (oral); format: in vivo; conditions: for oral activity relative to reference compounds RCB and RCC: times as active as RCB and RCC
Description: A.2. Passive cutaneous anaphylactic reaction test in rats (oral)

[5] = test system: beagle dogs; assay: Emetic activity in dogs; format: in vivo; conditions: four beagle dogs, oral gelatine capsules, observed at least 2.5 hours
Description: The emetic activity in dogs of test compound A was compared with that of the reference compound RCA.
Four beagle dogs, each of approximately 12 kg body weight, were starved overnight and then were given orally gelatine capsules containing either test compound A or RCA.
The same four animals were used to test both compounds.

Row | Compound | Relative Activity [2] | also measured
1 | CCCOc1ccc(NC=C(C(C)=O)C(C)=O)cc1-c1nc2[nH]nnc2c(=O)[nH]1 [Compound B, 2-[5-(2,2-diacetylvinylamino)-2-propoxyphenyl]-8-azapurin-6-one] | 50 | LD50 at 168 h ([1]; test solution 1% w/v): 350 mg/kg
2 | CCCOc1ccc(NC2=C(C(=O)OCC)CCC2)cc1-c1nc2[nH]nnc2c(=O)[nH]1 [Compound U, 2-[5-(2-ethoxycarbonylcyclopent-1-enylamino)-2-propoxyphenyl]-8-azapurin-6-one] | 5 | LD50 at 168 h ([1]; test solution 2% w/v): 220 mg/kg
3 | CCCOc1ccc(C(=O)NC(C)(C)C)cc1-c1nc2[nH]nnc2c(=O)[nH]1 [Compound N, 2-(5-N-t-butylcarbamoyl-2-propoxyphenyl)-8-azapurin-6-one] | 50 | LD50 at 72 h [3]: > 1000 mg/kg
4 | CCCOc1ccc(NC=C(C(=O)OCC)C(=O)OCC)cc1-c1nc2[nH]nnc2c(=O)[nH]1 [Compound A, 2-[5-{2,2-bis(ethoxycarbonyl)vinylamino}-2-propoxyphenyl]-8-azapurin-6-one] | 5 | oral activity relative to reference compounds RCB and RCC [4]: over 5 times; vomiting (emetic activity) ([5]; 200 mg/kg): caused vomiting in none of the four dogs
5 | CCCOc1ccc(S(=O)(=O)CCC)cc1-c1nc2[nH]nnc2c(=O)[nH]1 [RCC, 2-(2-propoxy-5-propylsulphonylphenyl)-8-azapurin-6-one, reference compound] | – | oral activity of RCB and RCC compared with each other [4]: approximately equiactive orally
6 | CCCOc1ccc(NC=C(C(C)=O)C(=O)OCC)cc1-c1nc2[nH]nnc2c(=O)[nH]1 [D, 2-[5-(2-acetyl-2-ethoxycarbonylvinylamino)-2-propoxyphenyl]-8-azapurin-6-one] | 10 | LD50 at 168 h ([1]; test solution 2% w/v): 270 mg/kg
7 | CCCOc1ccc(C(=O)N(C)C(C)C)cc1-c1nc2[nH]nnc2c(=O)[nH]1 [W, 2-(5-N-methyl-N-isopropylcarbamoyl-2-propoxyphenyl)-8-azapurin-6-one] | 5 | –
8 | CCCOc1ccc(NC=C(C(=O)OC)C(=O)OC)cc1-c1nc2[nH]nnc2c(=O)[nH]1 [Compound G, 2-[5-{2,2-bis(methoxycarbonyl)vinylamino}-2-propoxyphenyl]-8-azapurin-6-one] | 50 | LD50 at 168 h ([1]; test solution 2% w/v): 280 mg/kg
9 | CCCOc1ccc(S(=O)(=O)N(C)C(C)C)cc1-c1nc2[nH]nnc2c(=O)[nH]1 [RCB, 2-[2-propoxy-5-(N-methyl-N-isopropylsulphamoyl)-phenyl]-8-azapurin-6-one, reference compound] | – | oral activity of RCB and RCC compared with each other [4]: approximately equiactive orally
10 | CCCOc1ccc(NC(N)=O)cc1-c1nc2[nH]nnc2c(=O)[nH]1 [Compound S, 2-(2-propoxy-5-ureidophenyl)-8-azapurin-6-one] | 5 | –
11 | CCOC(=O)C(=CNc1ccc(OC)c(-c2nc3[nH]nnc3c(=O)[nH]2)c1)C(=O)OCC [Compound E, 2-[5-{2,2-bis(ethoxycarbonyl)vinylamino}-2-methoxyphenyl]-8-azapurin-6-one] | 5 | LD50 at 168 h ([1]; test solution 1% w/v): 320 mg/kg; LD50 at 72 h [3]: > 1000 mg/kg
12 | COc1ccc(NC=C(C(C)=O)C(C)=O)cc1-c1nc2[nH]nnc2c(=O)[nH]1 [F, 2-[5-(2,2-diacetylvinylamino)-2-methoxyphenyl]-8-azapurin-6-one] | 5 | –
13 | COc1ccc(NC(C)=CC(C)=O)cc1-c1nc2[nH]nnc2c(=O)[nH]1 [Compound I, 2-[5-(1-acetylprop-1-en-2-ylamino)-2-methoxyphenyl]-8-azapurin-6-one] | 5 | LD50 at 168 h ([1]; test solution 1% w/v): 470 mg/kg
14 | CCCOc1ccc(C(=O)N(CC)CC)cc1-c1nc2[nH]nnc2c(=O)[nH]1 [Compound V, 2-(5-N,N-diethylcarbamoyl-2-propoxyphenyl)-8-azapurin-6-one] | 3 | –
15 | CCCOc1ccc(N/C(=C\C(=O)OC)C(=O)OC)cc1-c1nc2[nH]nnc2c(=O)[nH]1 [Compound H, (Z)-2-[5-{1,2-bis(methoxycarbonyl)vinylamino}-2-propoxyphenyl]-8-azapurin-6-one] | 15 | LD50 at 168 h ([1]; test solution 2% w/v): 410 mg/kg
16 | CCCOc1ccc(NC(=S)NC)cc1-c1nc2[nH]nnc2c(=O)[nH]1 [Compound Q, 2-[5-(3-methyl-2-thioureido)-2-propoxyphenyl]-8-azapurin-6-one] | 10 | –
17 | CCCOc1ccc(C(N)=O)cc1-c1nc2[nH]nnc2c(=O)[nH]1 [Compound M, 2-(5-carbamoyl-2-propoxyphenyl)-8-azapurin-6-one] | 10 | –
18 | CCCOc1ccc(C#N)cc1-c1nc2[nH]nnc2c(=O)[nH]1 [Compound L, 2-(5-cyano-2-propoxyphenyl)-8-azapurin-6-one] | 1 | –
19 | CCCOc1ccc(NC=C(C#N)C(=O)OCC)cc1-c1nc2[nH]nnc2c(=O)[nH]1 [C, 2-[5-(2-cyano-2-ethoxycarbonylvinylamino)-2-propoxyphenyl]-8-azapurin-6-one] | 10 | LD50 at 168 h ([1]; test solution 2% w/v): 290 mg/kg; oral activity relative to reference compounds RCB and RCC [4]: over 2.5 times
20 | CCCOc1ccc(-c2nnn[nH]2)cc1-c1nc2[nH]nnc2c(=O)[nH]1 [Compound T, 2-[2-propoxy-5-(tetrazol-5-yl)phenyl]-8-azapurin-6-one] | 2 | –
21 | CCCNC(=S)Nc1ccc(OCCC)c(-c2nc3[nH]nnc3c(=O)[nH]2)c1 [Compound R, 2-[2-propoxy-5-(3-propyl-2-thioureido)phenyl]-8-azapurin-6-one] | 0.2 | LD50 at 72 h [3]: > 1000 mg/kg
22 | CCCOc1ccc(N=NC(C(=O)OCC)C(=O)OCC)cc1-c1nc2[nH]nnc2c(=O)[nH]1 [K, 2-[5-{bis(ethoxycarbonyl)methylazo}-2-propoxyphenyl]-8-azapurin-6-one] | 2.5 | LD50 at 168 h ([1]; test solution 2% w/v): 255 mg/kg
23 | CCCOc1ccccc1-c1nc2nn[nH]c2c(=O)[nH]1 [RCA, 2-(2-propoxyphenyl)-8-azapurin-6-one, reference compound] | 1 | vomiting (emetic activity) ([5]; 100 mg/kg): caused vomiting in all four dogs
24 | CCCOc1ccc(NC(=O)NC(C)C)cc1-c1nc2[nH]nnc2c(=O)[nH]1 [Compound O, 2-[2-propoxy-5-(3-isopropylureido)phenyl]-8-azapurin-6-one] | 30 | LD50 at 72 h [3]: > 1000 mg/kg
25 | CCCNC(=O)Nc1ccc(OCCC)c(-c2nc3[nH]nnc3c(=O)[nH]2)c1 [Compound P, 2-[2-propoxy-5-(3-propylureido)phenyl]-8-azapurin-6-one] | 2 | –
26 | CCCOc1ccc(N=NC(C(C)=O)C(C)=O)cc1-c1nc2[nH]nnc2c(=O)[nH]1 [J, 2-[5-(2,4-dioxopent-3-ylazo)-2-propoxyphenyl]-8-azapurin-6-one] | 10 | LD50 at 72 h [3]: > 1000 mg/kg
